# Measurements as given in patent US7569578B2, “Heterocyclic anti-migraine agents” (Bristol-Meyers Squibb Company, priority 2003, dated 2009).
# Target: T1, Human CGRP1 Receptor (Homo sapiens, UniProt O60894+Q16602)
# T1 construct: endogenous in cells; host or cells: SK-N-MC cells (membrane homogenate)
# Experiment: CGRP Binding Assay ([125I]-CGRP radioligand displacement, SK-N-MC membrane homogenate)
# Settings: [125I]-CGRP displacement, SK-N-MC homogenate, room temperature 2 h; read-out: Human CGRP1 Receptor IC50
# T1 sequence (Q16602 23-461): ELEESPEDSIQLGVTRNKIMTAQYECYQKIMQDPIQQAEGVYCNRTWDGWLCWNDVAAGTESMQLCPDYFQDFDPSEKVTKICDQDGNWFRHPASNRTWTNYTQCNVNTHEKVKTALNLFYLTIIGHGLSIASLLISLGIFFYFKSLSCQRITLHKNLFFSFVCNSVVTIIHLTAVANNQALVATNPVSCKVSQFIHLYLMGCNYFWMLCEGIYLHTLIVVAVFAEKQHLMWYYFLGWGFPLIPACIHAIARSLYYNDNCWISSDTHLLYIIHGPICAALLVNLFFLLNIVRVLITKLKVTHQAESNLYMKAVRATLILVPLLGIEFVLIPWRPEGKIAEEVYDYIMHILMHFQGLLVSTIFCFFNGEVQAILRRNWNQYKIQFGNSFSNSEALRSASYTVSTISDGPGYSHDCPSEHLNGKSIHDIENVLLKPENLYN
# T1 sequence (O60894 27-148): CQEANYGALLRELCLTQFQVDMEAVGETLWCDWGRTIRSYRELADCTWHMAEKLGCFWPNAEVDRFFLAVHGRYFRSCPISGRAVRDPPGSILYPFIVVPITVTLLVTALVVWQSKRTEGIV
row,IC50 [nM],Structure (SMILES)
1,< 10,"Cc1cc(Cn2ccnc2C(Cc2cc(C)c3[nH]ncc3c2)NC(=O)N2CCC(N3Cc4ccccc4NC3=O)CC2)cc(Cl)n1 (racemic) [Example 93, (±)-N-(1-(1-((2-Chloro-6-methylpyridin-4-yl)methyl)-1H-imidazol-2-yl)-2-(7-methyl-1H-indazol-5-yl)ethyl)-4-(2-oxo-1,2-dihydroquinazolin-3(4H)-yl)piperidine-1-carboxamide]"
2,< 10,"Cc1cc(Cn2ccnc2C(Cc2cc(C)c3[nH]ncc3c2)NC(=O)N2CCC(N3Cc4ccccc4NC3=O)CC2)ccn1 (racemic) [Example 94, (±)-N-(2-(7-Methyl-1H-indazol-5-yl)-1-(1-((2-methylpyridin-4-yl)methyl)-1H-imidazol-2-yl)ethyl)-4-(2-oxo-1,2-dihydroquinazolin-3(4H)-yl)piperidine-1-carboxamide]"
3,< 10,"Cc1cc(CC(NC(=O)N2CCC(c3cc4ccccc4[nH]c3=O)CC2)c2cc3ccccc3cn2)cc2cn[nH]c12 (stereo not shown) [Example 36, N-(1-(Isoquinolin-3-yl)-2-(7-methyl-1H-indazol-5-yl)ethyl)-4-(2-oxo-1,2-dihydroquinolin-3-yl)piperidine-1-carboxamide]"
4,< 10,"Cc1cc(CC(NC(=O)N2CCC(N3Cc4ccccc4NC3=O)CC2)c2cc3ccccc3cn2)cc2cn[nH]c12 (stereo not shown) [Example 50, N-(1-(isoquinolin-3-yl)-2-(7-methyl-1H-indazol-5-yl)ethyl)-4-(2-oxo-1,2-dihydroquinazolin-3(4H)-yl)piperidine-1-carboxamide]"
5,< 10,"Cc1cc(CC(NC(=O)N2CCC(N3Cc4cccc(F)c4NC3=O)CC2)c2cc3ccccc3cn2)cc2cn[nH]c12 (stereo not shown) [Example 51, 4-(8-fluoro-2-oxo-1,2-dihydroquinazolin-3(4H)-yl)-N-(1-(isoquinolin-3-yl)-2-(7-methyl-1H-indazol-5-yl)ethyl)piperidine-1-carboxamide]"
6,< 10,"Cc1cc(CC(OC(=O)N2CCC(N3Cc4cccc(F)c4NC3=O)CC2)c2cc3ccccc3cn2)cc2cn[nH]c12 (stereo not shown) [Example 52, 1-(Isoquinolin-3-yl)-2-(7-methyl-1H-indazol-5-yl)ethyl 4-(8-fluoro-2-oxo-1,2-dihydroquinazolin-3(4H)-yl)piperidine-1-carboxylate]"
7,< 10,"Cc1cc(CC(OC(=O)N2CCC(N3Cc4ccccc4NC3=O)CC2)c2cc3ccccc3cn2)cc2cn[nH]c12 (stereo not shown) [Example 53, 1-(Isoquinolin-3-yl)-2-(7-methyl-1H-indazol-5-yl)ethyl 4-(2-oxo-1,2-dihydroquinazolin-3(4H)-yl)piperidine-1-carboxylate]"
8,< 10,"Cc1cc(CC(OC(=O)N2CCC(N3Cc4ccccc4NC3=O)CC2)c2ccccn2)cc2cn[nH]c12 (stereo not shown) [Example 54, 2-(7-methyl-1H-indazol-5-yl)-1-(pyridin-2-yl)ethyl 4-(2-oxo-1,2-dihydroquinazolin-3(4H)-yl)piperidine-1-carboxylate]"
9,< 10,"Cc1cc(CC(OC(=O)N2CCC(N3Cc4cccc(F)c4NC3=O)CC2)c2ccccn2)cc2cn[nH]c12 (stereo not shown) [Example 55, 2-(7-methyl-1H-indazol-5-yl)-1-(pyridin-2-yl)ethyl 4-(8-fluoro-2-oxo-1,2-dihydroquinazolin-3(4H)-yl)piperidine-1-carboxylate]"
10,10 to 100,"Cc1cc(CC(OC(=O)N2CCC(N3Cc4ccccc4NC3=O)CC2)c2ccco2)cc2cn[nH]c12 (stereo not shown) [Example 56, 1-(Furan-2-yl)-2-(7-methyl-1H-indazol-5-yl)ethyl 4-(2-oxo-1,2-dihydroquinazolin-3(4H)-yl)piperidine-1-carboxylate]"
11,100 to 1000,"Cc1cc(CC(OC(=O)N2CCC(N3Cc4ccccc4NC3=O)CC2)c2ccncc2)cc2cn[nH]c12 (stereo not shown) [Example 57, 2-(7-Methyl-1H-indazol-5-yl)-1-(pyridin-4-yl)ethyl 4-(2-oxo-1,2-dihydroquinazolin-3(4H)-yl)piperidine-1-carboxylate]"
12,100 to 1000,"Cc1cc(CC(OC(=O)N2CCC(N3Cc4ccccc4NC3=O)CC2)c2cccnc2)cc2cn[nH]c12 (stereo not shown) [Example 58, 2-(7-Methyl-1H-indazol-5-yl)-1-(pyridin-3-yl)ethyl 4-(2-oxo-1,2-dihydroquinazolin-3(4H)-yl)piperidine-1-carboxylate]"
13,100 to 1000,"Cc1cc(CC(OC(=O)N2CCC(N3Cc4cccc(F)c4NC3=O)CC2)c2cccnc2)cc2cn[nH]c12 (stereo not shown) [Example 59, 2-(7-Methyl-1H-indazol-5-yl)-1-(pyridin-3-yl)ethyl 4-(8-fluoro-2-oxo-1,2-dihydroquinazolin-3(4H)-yl)piperidine-1-carboxylate]"
14,10 to 100,"Cc1cc(CC(OC(=O)N2CCC(N3Cc4cccc(F)c4NC3=O)CC2)c2ccco2)cc2cn[nH]c12 (stereo not shown) [Example 60, 1-(Furan-2-yl)-2-(7-methyl-1H-indazol-5-yl)ethyl 4-(8-fluoro-2-oxo-1,2-dihydroquinazolin-3(4H)-yl)piperidine-1-carboxylate]"
15,< 10,"Cc1cc(CC(OC(=O)N2CCC(N3Cc4ccccc4NC3=O)CC2)c2ccc3ccccc3n2)cc2cn[nH]c12 (stereo not shown) [Example 61, 2-(7-Methyl-1H-indazol-5-yl)-1-(quinolin-2-yl)ethyl 4-(2-oxo-1,2-dihydroquinazolin-3(4H)-yl)piperidine-1-carboxylate]"
16,100 to 1000,"Cc1cc(C)nc(C(Cc2cc(C)c3[nH]ncc3c2)OC(=O)N2CCC(c3cc4ccccc4[nH]c3=O)CC2)n1 (stereo not shown) [Example 62, 1-(4,6-Dimethylpyrimidin-2-yl)-2-(7-methyl-1H-indazol-5-yl)ethyl 4-(2-oxo-1,2-dihydroquinolin-3-yl)piperidine-1-carboxylate]"
17,100 to 1000,"Cc1cc(C)nc(C(Cc2cc(C)c3[nH]ncc3c2)OC(=O)N2CCC(N3Cc4cccc(F)c4NC3=O)CC2)n1 (stereo not shown) [Example 63, 1-(4,6-Dimethylpyrimidin-2-yl)-2-(7-methyl-1H-indazol-5-yl)ethyl 4-(8-fluoro-2-oxo-1,2-dihydroquinazolin-3(4H)-yl)piperidine-1-carboxylate]"
18,10 to 100,"Cc1cc(CC(OC(=O)N2CCC(N3Cc4ccccc4NC3=O)CC2)c2cc3ccccc3o2)cc2cn[nH]c12 (stereo not shown) [Example 64, 1-(Benzofuran-2-yl)-2-(7-methyl-1H-indazol-5-yl)ethyl 4-(2-oxo-1,2-dihydroquinazolin-3(4H)-yl)piperidine-1-carboxylate]"
19,< 10,"Cc1cc(C[C@@H](OC(=O)N2CCC(c3cc4ccccc4[nH]c3=O)CC2)c2nccn2Cc2cc(F)cc(F)c2)cc2cn[nH]c12 [Example 78, (R)-1-(1-(3,5-difluorobenzyl)-1H-imidazol-2-yl)-2-(7-methyl-1H-indazol-5-yl)ethyl 4-(2-oxo-1,2-dihydroquinolin-3-yl)piperidine-1-carboxylate]"
20,< 10,"Cc1cc(C[C@@H](NC(=O)N2CCC(N3Cc4ccccc4NC3=O)CC2)c2ncc3ccccn23)cc2cn[nH]c12 [Example 85, (R)-N-(1-(H-Imidazo[1,5-a]pyridin-3-yl)-2-(7-methyl-1H-indazol-5-yl)ethyl)-4-(2-oxo-1,2-dihydroquinazolin-3(4H)-yl)piperidine-1-carboxamide]"
21,< 10,"CC1=CC(CC(CC(=O)N2CCC(N3Cc4ccccc4NC3=O)CC2)c2nccn2Cc2ccc(C(C)(C)C)cc2)=CC2C=NNC12 (stereo not shown) [Example 95, 3-(1-(3-(1-(4-tert-Butylbenzyl)-1H-imidazol-2-yl)-4-(7-methyl-3a,7a-dihydro-1H-indazol-5-yl)butanoyl)piperidin-4-yl)-3,4-dihydroquinazolin-2(1H)-one]"
22,< 10,"CC1=CC(CC(CC(=O)N2CCC(N3Cc4cccc(F)c4NC3=O)CC2)c2nccn2Cc2ccc(C(C)(C)C)cc2)=CC2C=NNC12 (stereo not shown) [Example 96, 3-(1-(3-(1-(4-tert-Butylbenzyl)-1H-imidazol-2-yl)-4-(7-methyl-3a,7a-dihydro-1H-indazol-5-yl)butanoyl)piperidin-4-yl)-8-fluoro-3,4-dihydroquinazolin-2(1H)-one]"
23,< 10,"CC1=CC(CC(CC(=O)N2CCC(N3Cc4ccccc4NC3=O)CC2)c2nccn2Cc2ccncc2)=CC2C=NNC12 (stereo not shown) [Example 97, 3-(1-(4-(7-Methyl-3a,7a-dihydro-1H-indazol-5-yl)-3-(1-(pyridin-4-ylmethyl)-1H-imidazol-2-yl)butanoyl)piperidin-4-yl)-3,4-dihydroquinazolin-2(1H)-one]"
24,< 10,"CC1=CC(CC(CC(=O)N2CCC(N3Cc4ccccc4NC3=O)CC2)c2nc3ccccc3[nH]2)=CC2C=NNC12 (stereo not shown) [Example 98, 3-(1-(3-(1H-Benzo[d]imidazol-2-yl)-4-(7-methyl-3a,7a-dihydro-1H-indazol-5-yl)butanoyl)piperidin-4-yl)-3,4-dihydroquinazolin-2(1H)-one]"
25,< 10,"CCn1c(C(CC(=O)N2CCC(N3Cc4ccccc4NC3=O)CC2)CC2=CC3C=NNC3C(C)=C2)nc2ccccc21 (stereo not shown) [Example 99, 3-(1-(3-(1-Ethyl-1H-benzo [d]imidazol-2-yl)-4-(7-methyl-3a,7a-dihydro-1H-indazol-5-yl)butanoyl)piperidin-4-yl)-3,4-dihydroquinazolin-2(1H)-one]"
26,100 to 1000,"Cc1cc(C[C@@H](OC(=O)N2CCC(c3cc4ccccc4[nH]c3=O)CC2)c2nc(-c3ccc(F)cc3)no2)cc2cn[nH]c12 [Example 100, (R)-1-(3-(4-Fluorophenyl)-1,2,4-oxadiazol-5-yl)-2-(7-methyl-1H-indazol-5-yl)ethyl 4-(2-oxo-1,2-dihydroquinolin-3-yl)piperidine-1-carboxylate]"
27,10 to 100,"Cc1cc(C[C@@H](OC(=O)N2CCC(N3Cc4ccccc4NC3=O)CC2)c2nc(-c3ccncc3)no2)cc2cn[nH]c12 [Example 101, (R)-2-(7-Methyl-1H-indazol-5-yl)-1-(3-(pyridin-4-yl)-1,2,4-oxadiazol-5-yl)ethyl 4-(2-oxo-1,2-dihydroquinazolin-3(4H)-yl)piperidine-1-carboxylate]"
28,10 to 100,"Cc1cc(C[C@@H](OC(=O)N2CCC(c3cc4ccccc4[nH]c3=O)CC2)c2nc(-c3cccnc3)no2)cc2cn[nH]c12 [Example 102, (R)-2-(7-Methyl-1H-indazol-5-yl)-1-(3-(pyridin-3-yl)-1,2,4-oxadiazol-5-yl)ethyl 4-(2-oxo-1,2-dihydroquinolin-3-yl)piperidine-1-carboxylate]"
